From US20120225862A1, “HETEROARYL BENZAMIDES, COMPOSITIONS AND METHODS OF USE” (AUCKLAND UNIVSERVICES LIMITED, priority 2009, published 2012)

Assays:
[1] = system: 786-O; assay: FDG-PET imaging of 786-O xenografts; assay type: in vivo, mice
Method: (§1) FIG. 5A-E In vivo monitoring and efficacy of compound 47. […] 786-O, a renal clear cell carcinoma with a naturally occurring VHL mutation, were implanted subcutaneously into the flanks of CD-1 nude mice. Representative axial cross section of a mouse prior to treatment (left) and following three daily i.p. injections with compound 85 (11.6 mg/kg)(right), overlaid over CT scan. (B) Quantitatively, compound 85 inhibits FDG-PET in mouse xenografts. Quantification of FDG-PET inhibition by compound 85 as determined by the 90th percentile ROI for percent injected dose per gram (% ID/g) (*p<0.01). (C) Compound 85 is not toxic to normal tissues. (a, b) Kidney of vehicle- and compound 85-treated animals. (c, d) Spleen of vehicle- and compound 85-treated animals. (e, f) Liver of vehicle- and compound 85-treated animals. (g, h) Heart of vehicle- and compound 85-treated animals. (i, j) Salivary gland of vehicle- and compound 85-treated animals. (k, l) Brain of vehicle- and compound 85-treated animals. Scale bar represents 100 microns. (D) Compound 85 delays tumor growth. 786-O tumor-bearing mice were treated daily with vehicle or compound 85 (11.6 mg/kg for the first 3 days, followed by 7.8 mg/kg for the next week)(*p<0.005). (E) Compound 85 delays tumor growth in cells that have lost VHL. ACHN cells expressing a short hairpin RNA to VHL were implanted subcutaneously into the flanks of immunocompromised mice. Once tumors reached an average of >20 mm^3, mice were treated daily with compound 85 or vehicle (*p<0.05). All error bars represent the standard error of the mean.
In Vivo Studies and Immunohistochemistry. All experiments were approved by Stanford's Administrative Panel on Laboratory Animal Care (APLAC) and in accordance with both institutional and national guidelines. Five million cells were implanted subcutaneously into the flanks of nude mice (4-6 weeks old)(Charles River Laboratories). Tumors were measured with calipers. Volume was calculated by the following formula: width^2×0.5 length. […]

[2] = system: 786-O; assay: Xenograft tumor growth, 786-O; assay type: in vivo, mice; conditions: daily, 11.6 mg/kg for 3 days then 7.8 mg/kg, ten to fourteen days, vs vehicle
Method: (§2) Five million cells were injected into the flanks of nu/nu mice (4-6 weeks old males) and allowed to grow to approximately 50 mm^3. The mice were injected daily by intra-peritoneal to deliver either vehicle or drug. Tumors were measured every other day and tumor volume was calculated as 0.5 length by width squared.
(§3) In Vivo Studies and Immunohistochemistry. All experiments were approved by Stanford's Administrative Panel on Laboratory Animal Care (APLAC) and in accordance with both institutional and national guidelines. Five million cells were implanted subcutaneously into the flanks of nude mice (4-6 weeks old)(Charles River Laboratories). Tumors were measured with calipers. Volume was calculated by the following formula: width^2×0.5 length. Once tumors reached an average size of >20 mm^3, mice were randomized into vehicle (DMSO diluted in 16% cremaphor EL/PBS) or treated groups. Mice were treated with compound 85 (11.6 mg/kg for the first 3 days, followed by 7.8 mg/kg for the 7-9 days). Five-micron sections were cut for immunohistochemistry. Sections were counterstained with hematoxylin and eosin. For 2-[^18F]-fluoro-2-deoxy-glucose-positron emission tomography imaging, mice bearing tumors were fasted overnight. The next day, the mice were anesthetized with 2% isoflurane and injected intraperitoneally with 250 μCi of FDG. […]

[3] = system: RCC4/VHL; assay: XTT IC50 assay, selectivity RCC4 versus RCC4 with VHL-reintroduced; assay type: cell-based, human; conditions: selectivity ratio of XTT IC50 values, RCC4 vs RCC4/VHL
How it was run: (§4)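 RCC4 parental and VHL-reintroduced RCC4/VHL cells (DMEM, 10% FCS) treated with serially diluted drug for four days. Viability by XTT (0.3 mg/mL) with N-methyl dibenzopyrazine methyl sulfate, 1–2 h at 37 °C, absorbance 450 nm; IC50 by linear interpolation.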

[4] = system: ACHN shVHL; assay: Xenograft tumor growth, ACHN expressing shRNA to VHL; assay type: in vivo, mice; conditions: daily systemic treatment ten to fourteen days, vs vehicle
Method: as §2, §3

[5] = Normal tissue toxicity (histology); assay type: in vivo; conditions: treated mice; kidney, spleen, liver, heart, salivary gland, brain
Method: as §1, with “(E) Compound 85 delays tumor growth in cells that have lost VHL. ACHN cells expressing a short hairpin RNA to VHL were implanted subcutaneously into the flanks of immunocompromised mice. Once tumors reached an average of >20 mm^3, mice were treated daily with compound 85 or vehicle (*p<0.05). All error bars represent the standard error of the mean.” left out
In Vivo Studies and Immunohistochemistry. […] Tumors were measured with calipers. Volume was calculated by the following formula: width^2×0.5 length. […]

[6] = system: RCC4; assay: XTT IC50 / viability assay, RCC4 cells; assay type: cell-based, human; conditions: Homo sapiens, RCC4, 96 h; XTT assay, four days
How it was run: as §4

[7] = system: ACHN; assay: Xenograft tumor growth, ACHN with wild-type VHL; assay type: in vivo, mice; conditions: daily treatment vs vehicle control
Method: as §2, §3

[8] = Solubility (comparison in words); assay type: physicochemical

## CN1CCN(c2ccc(S(=O)(=O)NCc3ccc(C(=O)Nc4cccnc4)cc3)cc2)CC1 [Example 76, 4-((4-(4-Methylpiperazin-1-yl)phenylsulfonamido)methyl)-N-(pyridin-3-yl)benzamide]
[1]; 786-O xenografts in CD-1 nude mice, three daily i.p. doses (11.6 mg/kg)
  glucose uptake within tumors by FDG-PET: striking decrease in glucose uptake within the tumors
[1]; 786-O xenografts, FIG. 5B
  tumor FDG uptake, quantified (% ID/g): consistently decreased FDG uptake
[2]
  tumor growth, 786-O xenografts: markedly delayed tumor growth
[3]
  Ratio (RCC4:RCC/VHL): c (“c” reflects a ratio of >100)
[4]
  tumor growth, ACHN shVHL xenografts: markedly delayed tumor growth
[5]
  normal tissue toxicity: no normal tissue toxicity
[6]
  IC50: < 1000 nM
[7]
  tumor growth, ACHN wild-type VHL xenografts: grew at similar rates
[8]
  solubility relative to compound 47: more soluble
